From patent US20100196926A1, “Combined Method And Kit For The Sequential Measurement of (1) The Enzymatically Active Fraction And (2) The Total Amount Of An Enzyme” (UNIVERSITE DE LIEGE, priority 2007, published 2010) come the findings set out here.

For the experiment, the system named is activated equine neutrophils. Description: Combined SIEFED-ELISA measurement of total and active MPO released by PMA-activated equine neutrophils pre-incubated with polyphenols. Type of experiment: cell-based, horse. The following applies: for inhibition percentage on total enzyme (MPO) release / inhibition percentage on MPO activity (active fraction of MPO released): 10^-5 M, neutrophils pre-incubated 10 min at 37° C., activated 30 min with 8×10^−7 M PMA, supernatant. As for the experimental part: The primary antibody(2), that captures the enzyme (MPO 1), is a rabbit IgG (3 μg/ml). Standard enzyme (MPO) or unknown sample is incubated 2 h at 37° C. After washing, the (peroxidase) activity of the enzyme (MPO) is detected by adding 100 μl of a 10 μM H2O2 solution and 40 μM of Amplex® Red (8) (10-acetyl-3,7-dihydroxyphenoxazine; from Molecular Probes) in phosphate buffer (50 mM, pH 7.5). The fluorescence is read during 30 min (at 37° C.) at 590 nm with a Fluoroskan Ascent apparatus (Labsystems). The volumes of the primary antibody(2) and the sample put in the wells, are 200 μl. Controls (blank) and dilutions of the samples are established with dilution buffer.
Enhancement of fluorescence was obtained when adding a defined concentration of nitrites ions (about 10 mM) to the Amplex® Red solution (8). The fluorescence response obtained in this SIEFED steps (part) of the combined SIEFED-ELISA bioassay is directly proportional to the enzymatically active fraction of the enzyme (equine MPO) present in the sample.
After the SIEFED detection, a washing (0.9% NaCl solution containing 0.1% tween 20) is performed before starting the ELISA part of the combined method; the immobilized antibody(2)—antigen(1) complex is incubated (2 h, 37° C.) with an excess (5 μg/ml) of guinea pig IgG, the secondary antibody (4). After washing, a third antibody (5) produced against guinea pig IgG is added. This third IgG (5) (goat IgG) is labeled with alkaline phosphatase (6) and recognizes the “sandwich” complex “primary antibody (2)—MPO(1)—secondary antibody”(4). After washing, phosphatase activity is detected by incubation (30 min, 37° C., in the darkness) with a paranitrophenyl phosphate solution (phosphatase substrate, Sigma). The reaction is stopped with NaOH and the absorbance (405 nm) is measured with a Multiscan Ascent apparatus (Labsystem). All the volumes added into the wells comprise 100 μl, except for washing (300 μl) and for the substrate solution (200 μl). Controls (blank) and dilutions of the standard enzyme (MPO) and samples were established with dilution buffer [PBS (20 mM phosphate, 137 mM NaCl and 2.7 mM KCl pH 7.4) to which 5 g/L bovine serum albumin and 0.1% tween 20 were added].
Neutrophils isolated from citrated blood of healthy horses were counted, suspended in phosphate buffer saline (PBS) at pH 7.4 and incubated 10 min at 37° C. with curcumin or THC at the final concentration of 10^−4, 10^−5 or 10^−6 M. After incubation and centrifugation (1000×g, 10 min), the neutrophils were resuspended in PBS and activated 30 min with 8×10^−7 M phorbol myristate acetate (PMA) followed by centrifugation and active and total enzyme (MPO) measurement in the supernatant by the combined SIEFED-ELISA specific bioassay. The effects of polyphenols on total and active fraction of enzyme (MPO) released by stimulated neutrophils were studied by pre-incubation of neutrophils with the drugs at various concentrations, before the neutrophil stimulation.
In general terms: In an ELISA, binding on a coated surface is turned into a signal by an enzyme label.

For `COc1cc(CCC(=O)CC(=O)CCc2ccc(O)c(OC)c2)ccc1O` [THC, Tetrahydrocurcumin], under “ELISA part”, the “inhibition percentage on total enzyme (MPO) release” value came out at 18%. Under “SIEFED part”, the “inhibition percentage on MPO activity (active fraction of MPO released)” value is recorded as 22%.
For the molecule `COc1cc(/C=C/C(=O)CC(=O)/C=C/c2ccc(O)c(OC)c2)ccc1O` [curcumin, Curcumin], the “inhibition percentage on total enzyme (MPO) release” value (ELISA part) is 44%. In addition, the “inhibition percentage on MPO activity (active fraction of MPO released)” value (SIEFED part) is listed as 60%. In addition, for the setting “10^−4, 10^−5 or 10^−6 M, PMA-activated equine neutrophils, ELISA part”, the “effect on the total enzyme (MPO) released by activated neutrophils” value is reported as “dose dependent inhibitory effects”. Also, the “effect on the active fraction of the enzyme (MPO) released by activated neutrophils” value (10^−4, 10^−5 or 10^−6 M, PMA-activated equine neutrophils, SIEFED part) is “dose dependent inhibitory effects”.
